{"source": "patent US20030134851A1", "about": "“Methods and compositions for providing glutamine” (priority 2001, published 2003)", "key": {"[1]": {"experiment": "Feeding pig model (absorption as component of diet)", "assay_type": "in vivo", "source_text": "Fifteen pigs, 15-20 kg in weight were provided by a certified farm. The pigs were acclimated to the laboratory for 2 days. A standard pig diet and water was provided ad libitum. After acclimation, the pigs were randomly assigned into group C [5 pigs, receiving a standard pig diet plus 3 g/kg of Cr2O3, (Merck cat No 1.02483)], group G [5 pigs, receiving diet C plus 8 g/kg of Gln, (Ajimoto)], and group N [5 pigs, receiving diet C plus 10.5 g/kg of N-acetyl-L-glutamine, (Flamma)]. During the experimental phase of the study, each group received 1000 grams of their respective diet per day per animal, fed in 3 portions and water was provided ad libitum. This experimental phase of feeding lasted 5 days.\nOn the day of experiment, animals were weighed and received the standard diet intake (333 g diet per animal) at 7:00 a.m. Three hours after feeding, animals were weighed, sedated and bled through jugular vein puncture. Animals were quickly opened by abdominal medium sagital incision and the content of the duodenum, medium jejunum (about 2 meters from the ligament of Treitz) and ileum (30 cm from the ileocecal valve) were taken, frozen in liquid nitrogen, lyophylized, and stored at −80° C. until analysis. Samples of liver and kidney were removed, dissected of visible fat and connective tissue, quickly frozen in liquid nitrogen and stored at −80° C. until analysis. […]\nIntestinal content was analyzed for glutamine, N-acetyl-L-glutamine and chromium (III) oxide. […]\nFor analysis of glutamine, the lyophilized intestinal content was treated and analyzed as described in the intestinal loop model above.\nChromium was incorporated into the diets to provide a correction factor to reflect content per kg of original diet. […] The absorbance at 372 nm against demineralized water as a blank was determined. The absorbance readings were converted to mg of Cr2O3 by employing the equation of a standard curve prepared by analyzing 0, 50, 100, 200 and 500 microliters of a standard chromium solution (2.9034 g of K2Cr2O7/L, which is equivalent to 1.5 g/L of Cr2O3)."}, "[2]": {"details": "pig, in vivo", "source_text": "Twenty-two domestic pigs weighing 15-20 kg were acclimated to lab conditions over 4 days. The pigs were fed a standard pig diet, which followed energetic requirements for these animals (Nutrient Requirements of Swine, 9th, 1998, Subcommittee on Swine Nutrition, National Research Council) and water ad libitum. Animals were randomly assigned into group C [6 pigs, receiving a glucosaline solution (Braun cat No 622647), 5% glucose, 0.9% NaCI], group G [8 pigs, receiving the same glucosaline solution fortified with 8 g/l of Gln, (Sigma cat No G-3126)], and group N [8 pigs, receiving the same glucosaline solution fortified with 10 g/l of NAQ, (Sigma cat No A-9125)]. Before surgery, animals were fasted 15 h. The day of experiment, animals were weighed and anaesthetized using Stresnil® and penthotal. […]\nThe analysis for N-acetyl-L-glutamine was conducted as follows. […] The detection and quantification of N-acetyl-L-glutamine was monitored at 210 nm.\nThe analysis for glutamine and glutamate was conducted as follows. […] After 1 minute the sample was diluted to 1 mL and injected into the HPLC system, consisting of a 2690 Separation Module, fluorescence detector and a SupelcoSil LC-18 column (250×4 mm, 3 micrometers). […] The detection and quantification of glutamate and glutamine was accomplished using an excitation wavelength of 250 nm and monitoring emission at 395 nm. […]"}, "[3]": {"details": "N-acetyl-L-glutamine diet (55.8 mmole/kg diet), pigs, 3 hours after feeding"}}, "data": [{"smiles": "CC(=O)N[C@@H](CCC(N)=O)C(=O)O", "note": "[N-acetyl-L-glutamine]", "values": [{"measurement": "N-acetyl-L-glutamine in distal ileum content", "setting": "[1]; [3]", "value": "12.8 ± 2.1", "unit": "mmole/kg original diet"}, {"measurement": "N-acetyl-L-glutamine in medium jejunum content", "setting": "[1]; [3]", "value": "10.3 ± 2.4", "unit": "mmole/kg original diet"}, {"measurement": "Absorption between the medial jejunum and the distal ilium", "setting": "[1]; pig, in vivo", "value": "not observed"}, {"measurement": "Glutamine in portal blood, N group versus G group", "setting": "[2]", "value": "no significant differences between G and N"}]}]}
